# Columns and labels:
# CASOB (Sicklepod) = assay: Postemergence herbicidal evaluation; assay type: in vivo, Cassia obtusifolia
# How it was run: (§1)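 Young plants, roughly two weeks from seeding, receive the active ingredient as a sprayed dispersion (acetone/water 50/50, 0.5% TWEEN 20) at 40 psi. Doses span about 0.0156 to 0.500 kg/ha. A visual score from 0 to 9 compares treated with control plants four to five weeks on.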
# [1] = system: CHEAL (Lambsquarters, Common); assay: Postemergence herbicidal evaluation; assay type: in vivo, Chenopodium album
# How it was run: as §1
# GALAP (Galium) = assay: Postemergence herbicidal evaluation; assay type: in vivo, Galium aparine
# How it was run: as §1
# ORYSAT (Rice, Tebonnet) = assay: Postemergence herbicidal evaluation; assay type: in vivo, Oryza sativa, (L.) Tebonnet
# How it was run: as §1
# ZEAMX (Corn, Field) = assay: Postemergence herbicidal evaluation; assay type: in vivo, Zea mays
# How it was run: as §1
# CYPSE (Flatsedge) [2] = assay: Preemergence weed control under flooded paddy conditions; assay type: in vivo, Cyperus serotinus; details: rated 3-4 weeks after treatment
# How it was run: (§2)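 Seeds or propagules sown in silt loam kept flooded 1.5-3 cm; compounds in 50/50 acetone/water pipetted into flood water at about 0.0313 to 0.500 kg/ha. Greenhouse; visual 0-9 rating versus untreated control 3-4 weeks after treatment.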
# MOOVA (Monochoria) = assay: as above; assay type: in vivo, Monochoria vaginalis; details: rated 3-4 weeks after treatment
# How it was run: as §2
# CYPIR (Rice Flatsedge) = assay: Postemergence weed control under flooded paddy conditions; assay type: in vivo, Cyperus iria; details: postemergence weeds, 3-4 weeks after treatment
# How it was run: (§3)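 Weeds 3 to 5 cm tall and rice seedlings at the 1.5 to 2.5 leaf stage were flooded, with water held 1.5 to 3 cm above the soil. Compounds in 50/50 v/v aqueous/acetone went into the flood water at about 0.0313 to 0.500 kg/ha. Visual 0-9 ratings versus control were made 3 to 4 weeks later.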
# CYPSE (Flatsedge) [3] = assay: as above; assay type: in vivo, Cyperus serotinus; details: postemergence weeds, 3-4 weeks after treatment
# How it was run: as §3
# [4] = system: SAGPY (Arrowhead (Pygmaea)); assay: as above; assay type: in vivo, Sagittaria pygmaea; details: postemergence weeds, 3-4 weeks after treatment
# How it was run: as §3
smiles,measurement,setting,value
"CCOC(=O)CN1C(=O)C(CC(=O)OC(C)C)SC1=Nc1cc(-n2c(=O)cc(C(F)(F)F)n(C)c2=O)c(F)cc1Cl (stereo not drawn) [Compound 55, 2-{{2-Chloro-5-[3,6-dihydro-3-methyl-2,6-dioxo-4-(trifluoromethyl)-1(2H)-pyrimidinyl]-4-fluoro-phenyl}imino}-4-oxo-3,5-thiazolidinediacetic acid, 3-ethyl isopropyl ester]",Postemergence herbicidal rating CASOB,CASOB (Sicklepod); Rate 0.0158 kg/ha,1.0
same,Postemergence herbicidal rating CASOB,CASOB (Sicklepod); Rate 0.0313 kg/ha,7.7
same,Postemergence herbicidal rating CASOB,CASOB (Sicklepod); Rate 0.0625 kg/ha,9.0
same,Postemergence herbicidal rating CASOB,CASOB (Sicklepod); Rate 0.1250 kg/ha,8.0
same,Postemergence herbicidal rating CASOB,CASOB (Sicklepod); Rate 0.2500 kg/ha,9.0
same,Postemergence herbicidal rating CHEAL,[1]; Rate 0.0158 kg/ha,9.0
same,Postemergence herbicidal rating CHEAL,[1]; Rate 0.0313 kg/ha,9.0
same,Postemergence herbicidal rating CHEAL,[1]; Rate 0.0625 kg/ha,9.0
same,Postemergence herbicidal rating CHEAL,[1]; Rate 0.1250 kg/ha,9.0
same,Postemergence herbicidal rating CHEAL,[1]; Rate 0.2500 kg/ha,9.0
same,Postemergence herbicidal rating GALAP,GALAP (Galium); Rate 0.0158 kg/ha,6.0
same,Postemergence herbicidal rating GALAP,GALAP (Galium); Rate 0.0313 kg/ha,3.3
same,Postemergence herbicidal rating GALAP,GALAP (Galium); Rate 0.0625 kg/ha,7.0
same,Postemergence herbicidal rating GALAP,GALAP (Galium); Rate 0.1250 kg/ha,9.0
same,Postemergence herbicidal rating GALAP,GALAP (Galium); Rate 0.2500 kg/ha,9.0
same,Postemergence herbicidal rating ORYSAT,"ORYSAT (Rice, Tebonnet); Rate 0.0158 kg/ha",2.5
same,Postemergence herbicidal rating ORYSAT,"ORYSAT (Rice, Tebonnet); Rate 0.0313 kg/ha",3.5
same,Postemergence herbicidal rating ORYSAT,"ORYSAT (Rice, Tebonnet); Rate 0.0625 kg/ha",4.2
same,Postemergence herbicidal rating ORYSAT,"ORYSAT (Rice, Tebonnet); Rate 0.1250 kg/ha",5.5
same,Postemergence herbicidal rating ORYSAT,"ORYSAT (Rice, Tebonnet); Rate 0.2500 kg/ha",6.5
same,Postemergence herbicidal rating ZEAMX,"ZEAMX (Corn, Field); Rate 0.0158 kg/ha",7.5
same,Postemergence herbicidal rating ZEAMX,"ZEAMX (Corn, Field); Rate 0.0313 kg/ha",8.3
same,Postemergence herbicidal rating ZEAMX,"ZEAMX (Corn, Field); Rate 0.0625 kg/ha",8.7
same,Postemergence herbicidal rating ZEAMX,"ZEAMX (Corn, Field); Rate 0.1250 kg/ha",8.8
same,Postemergence herbicidal rating ZEAMX,"ZEAMX (Corn, Field); Rate 0.2500 kg/ha",9.0
same,Herbicidal rating CYPSE,CYPSE (Flatsedge) [2]; 0.0313 kg/ha,0.0
same,Herbicidal rating CYPSE,CYPSE (Flatsedge) [2]; 0.0625 kg/ha,0.0
same,Herbicidal rating CYPSE,CYPSE (Flatsedge) [2]; 0.1250 kg/ha,0.0
same,Herbicidal rating CYPSE,CYPSE (Flatsedge) [2]; 0.2500 kg/ha,0.0
same,Herbicidal rating MOOVA,MOOVA (Monochoria); 0.0313 kg/ha,9.0
same,Herbicidal rating MOOVA,MOOVA (Monochoria); 0.0625 kg/ha,9.0
same,Herbicidal rating MOOVA,MOOVA (Monochoria); 0.1250 kg/ha,9.0
same,Herbicidal rating MOOVA,MOOVA (Monochoria); 0.2500 kg/ha,9.0
same,Herbicidal rating CYPIR,CYPIR (Rice Flatsedge); rate 0.0313 kg/ha,9.0
same,Herbicidal rating CYPIR,CYPIR (Rice Flatsedge); rate 0.0625 kg/ha,9.0
same,Herbicidal rating CYPIR,CYPIR (Rice Flatsedge); rate 0.1250 kg/ha,9.0
same,Herbicidal rating CYPIR,CYPIR (Rice Flatsedge); rate 0.2500 kg/ha,9.0
same,Herbicidal rating CYPSE,CYPSE (Flatsedge) [3]; rate 0.0313 kg/ha,0.0
same,Herbicidal rating CYPSE,CYPSE (Flatsedge) [3]; rate 0.0625 kg/ha,0.0
same,Herbicidal rating CYPSE,CYPSE (Flatsedge) [3]; rate 0.1250 kg/ha,0.0
same,Herbicidal rating CYPSE,CYPSE (Flatsedge) [3]; rate 0.2500 kg/ha,0.0
same,Herbicidal rating SAGPY,[4]; rate 0.0313 kg/ha,0.0
same,Herbicidal rating SAGPY,[4]; rate 0.0625 kg/ha,0.0
same,Herbicidal rating SAGPY,[4]; rate 0.1250 kg/ha,0.0
same,Herbicidal rating SAGPY,[4]; rate 0.2500 kg/ha,0.0

# Reference: patent US20020137929A1, “1 - (3-heterocyclylphenyl) isothiourea, -isourea, -guanidine and -amidine herbicidal agents” (Intellectual Property Department, BASF Aktiengesellschaft, priority 1998, published 2002)
